Laboratory results taken from patent publication US20130324461A1, “METHODS AND COMPOSITIONS FOR PREVENTING OR TREATING OBESITY” (priority 2010, published 2013).

Assays:
Assay type in all cases: in vivo
[1] = Weight gain of mice on high-fat diet treated with various A2AR agonists (Example 5, FIG. 5); conditions: male C57BL/6 mice
Protocol: Mice receiving a high-fat diet were treated with the A2AR agonists 2-[4-(2-aminoethylaminocarbonylethyl)phenylethylamino]-5′-N-ethylcarboxamidoadenosine (APEC) bistrifluoroacetic acid or 2 5′-N-ethylcarboxamidoadenosine (NECA). Male C57BL/6 mice (n=5) were provided a high-fat diet beginning at day 0. Also beginning on day 0, the mice were treated with daily subcutaneous injection of A2AR agonist. APEC was administered at 0.25 mg/kg/day, and NECA at 0.02 mg/kg/day.

serum leptin = assay: Serum leptin levels by ELISA after A2AR agonist injection (Example 4, FIG. 4); conditions: 8 week old female C57BL/6 mice, 0.5 mg/kg s.c., after 1 and 2 h, p<0.05
Protocol: To elucidate the mechanism by which A2AR agonists reduce weight gain, serum leptin levels were quantified in mice treated with an A2AR agonist. 8 week old Female C57BL/6 mice received subcutaneous injection of the A2AR agonist CGS21680 (0.5 mg/kg). After 1 and 2 h, serum leptin levels were measured by ELISA. […] The data shown in FIG. 4 represent average±SD (n=4). The statistical significance was calculated by Student's t-test: *, p<0.05.

[2] = Body weight of mice on high-fat diet, treated or untreated with A2AR agonist CGS21680 (Example 3, FIG. 3 left panel)
Protocol: Mice were untreated or treated with the A2AR agonist CGS21680 (Tocris) at different time points. CGS21680 (Tocris) was injected s.c. at a dose of 0.5 mg/kg daily either from week 9 to week 13, from week 13 to week 19, or from week 9 to week 19, as indicated in the FIG. 3 legends. Male mice (8 mice per group) were fed a high-fat diet (where 60% of calories are derived from fat) or low-fat diet (where 10% of calories are derived from fat) and the weight of the mice was measured. Special diets were obtained from Research Diets (New Brunswick, N.J.). One group of mice received no A2AR agonist at all (represented by diamonds in the graphs of FIG. 4); another group of mice was received CGS21680 only from week 9 to 13 (triangles); another group of mice received CGS21680 only from week 13 to 19 (squares); another group of mice received CGS21680 from week 9 to 19 (crosses). […] Some mice in the group that received no A2AR agonist at all (diamonds) almost doubled their weight between weeks 9 and 19, reaching up to 50 g total weight. […] Mice that were not injected from week 9 to 13 (squares) reached almost 40 g of weight by week 13.

[3] = Body weight of mice on low-fat diet, treated or untreated with A2AR agonist CGS21680 (Example 3, FIG. 3 right panel)
Protocol: Mice were untreated or treated with the A2AR agonist CGS21680 (Tocris) at different time points. CGS21680 (Tocris) was injected s.c. at a dose of 0.5 mg/kg daily either from week 9 to week 13, from week 13 to week 19, or from week 9 to week 19, as indicated in the FIG. 3 legends. Male mice (8 mice per group) were fed a high-fat diet (where 60% of calories are derived from fat) or low-fat diet (where 10% of calories are derived from fat) and the weight of the mice was measured. Special diets were obtained from Research Diets (New Brunswick, N.J.). One group of mice received no A2AR agonist at all (represented by diamonds in the graphs of FIG. 4); another group of mice was received CGS21680 only from week 9 to 13 (triangles); another group of mice received CGS21680 only from week 13 to 19 (squares); another group of mice received CGS21680 from week 9 to 19 (crosses). […] Mice in the group that received no A2AR agonist at all (diamonds) gained a small amount of weight reaching up to ˜35 g by week 19. This is much less than the weight reached by mice on the high-fat diet (˜50 g). […] Mice that were not injected with from week 9 to 13 (squares) did gain weight by week 13.

SMILES: CCNC(=O)[C@H]1O[C@@H](n2cnc3c(N)nc(NCCc4ccc(CCC(=O)NCCN)cc4)nc32)[C@H](O)[C@@H]1O [APEC, 2-[4-(2-aminoethylaminocarbonylethyl)phenylethylamino]-5′-N-ethylcarboxamidoadenosine]
- weight gain compared to the control group ([1]; high-fat diet from day 0, daily s.c. 0.25 mg/kg/day): dramatic reduction in weight gain

SMILES: CCNC(=O)[C@H]1O[C@@H](n2cnc3c(N)nc(NCCc4ccc(CCC(=O)O)cc4)nc32)[C@H](O)[C@@H]1O [CGS21680, 3-[4-[2-[[6-amino-9-[(2R,3R,4S,5S)-5-(ethylcarbamoyl)-3,4-dihydroxy-oxolan-2-yl]purin-2-yl]amino]ethyl]phenyl]propanoic acid]
- serum leptin levels (serum leptin): significantly increased
- weight gain ([2]; male mice, high-fat diet (60% of calories from fat), 0.5 mg/kg s.c. daily from week 9 to week 19): gained little or no weight
- weight gain between weeks 9 and 13 ([2]; male mice, high-fat diet, 0.5 mg/kg s.c. daily only from week 9 to 13): gained essentially no weight
- further weight gain after start of injections ([2]; male mice, high-fat diet, 0.5 mg/kg s.c. daily only from week 13 to 19): Essentially no further weight gain
- body weight gain ([2]; mice treated continuously (week 9 to 19), regardless of high-fat or low-fat diet): minimal
- weight gain ([3]; male mice, low-fat diet (10% of calories from fat), 0.5 mg/kg s.c. daily from week 9 to week 19): gained very little weight
- weight gain until week 13 ([3]; male mice, low-fat diet, 0.5 mg/kg s.c. daily only from week 9 to 13): gained essentially no weight
- further weight gain after start of injections ([3]; male mice, low-fat diet, 0.5 mg/kg s.c. daily only from week 13 to 19): essentially no more weight gain
- effect on weight gain (overall statement) ([3]; mice on low fat diet, 0.5 mg/kg s.c. daily): prevented or limited weight gain

SMILES: CCNC(=O)[C@H]1O[C@@H](n2cnc3c(N)ncnc32)[C@H](O)[C@@H]1O [NECA, 5′-N-ethylcarboxamidoadenosine]
- weight gain compared to the control group ([1]; high-fat diet from day 0, daily s.c. 0.02 mg/kg/day): dramatic reduction in weight gain
